Values of other authors as cited in patent US6670393B2, “Carbamate-based cationic lipids” (Promega Biosciences, Inc., priority 1995, dated 2003).

Test system: cells

## CC(C)CCC[C@@H](C)[C@H]1CC[C@H]2[C@@H]3CC=C4C[C@@H](OC(=O)NCCN(C)C)CC[C@]4(C)[C@H]3CC[C@]12C [DC-Chol]
  toxicity to cells (reported): lower toxicity
  transfection (reported): more efficient transfection
